Values quoted from earlier work, collected in patent publication US20240309009A1, “Anxiolytic Compounds, Pharmaceutical Compositions, and Methods of Treating Anxiety and Other Disorders” (Miralogx LLC, priority 2022, published 2024).
Where two headings read alike, the source gives them in different places.

What was measured:
[1] = test system: cell cultures
[2] = unlike ibogaine
[3] = test system: zebrafish
[4] = test system: rat nerve cells

| Compound | toxicity compared with ibogaine [1] | water solubility [2] | toxicity compared with ibogaine [3] | formation of new dendrites (branches) [4] | formation of new spines on dendrites [4] | duration of effects (inhaled or injected) | duration of effects (orally ingested along with a monoamine oxidase inhibitor (MAOI)) |
| --- | --- | --- | --- | --- | --- | --- | --- |
| COc1ccc2c3c([nH]c2c1)CCN(C)CC3 [TBG, Tabernanthalog] | less toxic than ibogaine | water-soluble | less toxic than ibogaine | increased formation of new dendrites | new spines on those dendrites | – | – |
| CN(C)CCc1c[nH]c2ccccc12 [DMT, N,N-Dimethyltryptamine] | – | – | – | – | – | 5 to 15 min | three |
